Assay results published in patent US12065442B2, “Tropomyosin receptor kinase (TRK) degradation compounds and methods of use” (Cullgen (Shanghai), Inc., priority 2018, dated 2024).
“Also recorded” adds a separate entry of the source. Read-outs that look alike come from different tables or passages of the source.

Test system: KM12 cells
Assay: Cell viability assay (CellTiter-Glo) in KM12 cells
Type: cell-based
Details: for IC50: Homo sapiens
[1] = 72 h, Table 4, KM12 cell viability, CellTiter-Glo, 3 days, read-out: IC50
[2] = 72 h, Table 2, KM12 cell viability, CellTiter-Glo, 3 days, read-out: IC50
[3] = 72 h, Table 3, KM12 cell viability, CellTiter-Glo, 3 days, read-out: IC50

Question: `O=C1CCC(N2C(=O)c3ccc(N4CCC(CN5CCN(c6cccc(-c7cnc8ccc(N9CCC[C@@H]9c9cccc(F)c9)nn78)n6)CC5)CC4)cc3C2=O)C(=O)N1` (stereo partly drawn) [TR-226, 2-(2,6-Dioxopiperidin-3-yl)-5-(4-((4-(6-(6-((R)-2-(3-fluorophenyl)pyrrolidin-1-yl)imidazo[1,2-b]pyridazin-3-yl)pyridin-2-yl)piperazin-1-yl)methyl)piperidin-1-yl)isoindoline-1,3-dione] was tested. Which IC50 [1] did it give?
Answer: 13.8 nM

Question: With `Cc1ncsc1-c1ccc(CNC(=O)[C@@H]2C[C@@H](O)CN2C(=O)[C@@H](NC(=O)CCCC(=O)N2CCN(c3ccc(C(=O)Nc4n[nH]c5ccc(Cc6cc(F)cc(F)c6)cc45)c(NC4CCOCC4)c3)CC2)C(C)(C)C)cc1` [CPD-036, (2S,4R)-1-((S)-2-(5-(4-(4-((5-(3,5-Difluorobenzyl)-1H-indazol-3-yl)carbamoyl)-3-((tetrahydro-2H-pyran-4-yl)amino)phenyl)piperazin-1-yl)-5-oxopentanamido)-3,3-dimethylbutanoyl)-4-hydroxy-N-(4-(4-methylthiazol-5-yl)benzyl)pyrrolidine-2-carboxamide] as the compound, how does the IC50 [2] read?
Answer: 300 nM

Question: How did the IC50 [2] turn out when `Cc1ncsc1-c1ccc(CNC(=O)[C@@H]2C[C@@H](O)CN2C(=O)[C@@H](NC(=O)CCOCCOCCOCCOCCC(=O)N2CCN(c3ccc(C(=O)Nc4n[nH]c5ccc(Cc6cc(F)cc(F)c6)cc45)c(NC4CCOCC4)c3)CC2)C(C)(C)C)cc1` [CPD-041, (2S,4R)-1-((S)-2-(tert-butyl)-19-(4-(4-((5-(3,5-Difluorobenzyl)-1H-indazol-3-yl)carbamoyl)-3-((tetrahydro-2H-pyran-4-yl)amino)phenyl)piperazin-1-yl)-4,19-dioxo-7,10,13,16-tetraoxa-3-azanonadecanoyl)-4-hydroxy-N-(4-(4-methylthiazol-5-yl)benzyl)pyrrolidine-2-carboxamide] was run?
Answer: 400 nM

Question: For `O=C(CN1CCN(c2ccc(C(=O)Nc3n[nH]c4ccc(Cc5cc(F)cc(F)c5)cc34)c(NC3CCOCC3)c2)CC1)NCCNc1ccc2c(c1)C(=O)N(C1CCC(=O)NC1=O)C2=O` (stereo not shown) [TR-165, N-(5-(3,5-Difluorobenzyl)-1H-indazol-3-yl)-4-(4-(2-((2-((2-(2,6-dioxopiperidin-3-yl)-1,3-dioxoisoindolin-5-yl)amino)ethyl)amino)-2-oxoethyl)piperazin-1-yl)-2-((tetrahydro-2H-pyran-4-yl)amino)benzamide], which IC50 [3] is on record?
Answer: 3.5 nM

Question: Which IC50 [2] does the source give for `Cc1ncsc1-c1ccc(CNC(=O)[C@@H]2C[C@@H](O)CN2C(=O)[C@@H](NC(=O)CCOCCOCCOCCOCCOCCC(=O)N2CCN(c3cccc(-c4cnc5ccc(N6CCC[C@@H]6c6cccc(F)c6)nn45)n3)CC2)C(C)(C)C)cc1` [CPD-005, (2S,4R)-1-((S)-2-(tert-butyl)-22-(4-(6-(6-((R)-2-(3-Fluorophenyl)pyrrolidin-1-yl)imidazo[1,2-b]pyridazin-3-yl)pyridin-2-yl)piperazin-1-yl)-4,22-dioxo-7,10,13,16,19-pentaoxa-3-azadocosanoyl)-4-hydroxy-N-(4-(4-methylthiazol-5-yl)benzyl)pyrrolidine-2-carboxamide] here?
Answer: > 1000 nM

Question: Which IC50 [3] does the source give for `O=C(CN1CCN(c2cccc(-c3cnc4ccc(N5CCC[C@@H]5c5cccc(F)c5)nn34)n2)CC1)NCCOCCOCCOCCOCCNc1ccc2c(c1)C(=O)N(C1CCC(=O)NC1=O)C2=O` (stereo partly drawn) [TR-125, N-(14-((2-(2,6-dioxopiperidin-3-yl)-1,3-dioxoisoindolin-5-yl)amino)-3,6,9,12-tetraoxatetradecyl)-2-(4-(6-(6-((R)-2-(3-fluorophenyl)pyrrolidin-1-yl)imidazo[1,2-b]pyridazin-3-yl)pyridin-2-yl)piperazin-1-yl)acetamide] here?
Answer: 2.8 nM

Question: With `O=C1CCC(N2Cc3cc(NCC(=O)N4CCN(c5cccc(-c6cnc7ccc(N8CCC[C@@H]8c8cccc(F)c8)nn67)n5)CC4)ccc3C2=O)C(=O)N1` (stereo partly drawn) [TR-190, 3-(5-((2-(4-(6-(6-((R)-2-(3-fluorophenyl)pyrrolidin-1-yl)imidazo[1,2-b]pyridazin-3-yl)pyridin-2-yl)piperazin-1-yl)-2-oxoethyl)amino)-1-oxoisoindolin-2-yl)piperidine-2,6-dione] as the compound, how does the IC50 [3] read?
Answer: 3.6 nM

Question: Which IC50 [3] does the source give for `O=C1CCC(N2C(=O)c3ccc(NCCC(=O)N4CCN(c5cccc(-c6cnc7ccc(N8CCC[C@@H]8c8cccc(F)c8)nn67)n5)CC4)cc3C2=O)C(=O)N1` (stereo partly drawn) [TR-121, 2-(2,6-Dioxopiperidin-3-yl)-5-((3-(4-(6-(6-((R)-2-(3-fluorophenyl)pyrrolidin-1-yl)imidazo[1,2-b]pyridazin-3-yl)pyridin-2-yl)piperazin-1-yl)-3-oxopropyl)amino)isoindoline-1,3-dione] here?
Answer: 2.1 nM

Question: How did the IC50 [2] turn out when `O=C(CN1CCN(c2cccc(-c3cnc4ccc(N5CCC[C@@H]5c5cccc(F)c5)nn34)n2)CC1)NCCOCCOCCOCCNc1cccc2c1C(=O)N(C1CCC(=O)NC1=O)C2=O` (stereo partly drawn) [CPD-059, N-(2-(2-(2-(2-((2-(2,6-dioxopiperidin-3-yl)-1,3-dioxoisoindolin-4-yl)amino)ethoxy)ethoxy)-ethoxy)ethyl)-2-(4-(6-(6-((R)-2-(3-fluorophenyl)pyrrolidin-1-yl)imidazo[1,2-b]pyridazin-3-yl)pyridin-2-yl)piperazin-1-yl)acetamide] was run?
Answer: 6 nM

Question: For `Cc1ncsc1-c1ccc(CNC(=O)[C@@H]2C[C@@H](O)CN2C(=O)[C@@H](NC(=O)COCCOCC(=O)N2CCN(c3cccc(-c4cnc5ccc(N6CCC[C@@H]6c6cccc(F)c6)nn45)n3)CC2)C(C)(C)C)cc1` [CPD-002, (2S,4R)-1-((S)-2-(2-(2-(2-(4-(6-(6-((R)-2-(3-Fluorophenyl)pyrrolidin-1-yl)imidazo[1,2-b]pyridazin-3-yl)pyridin-2-yl)piperazin-1-yl)-2-oxoethoxy)ethoxy)acetamido)-3,3-dimethylbutanoyl)-4-hydroxy-N-(4-(4-methylthiazol-5-yl)benzyl)pyrrolidine-2-carboxamide], which IC50 [2] is on record?
Answer: > 1000 nM

Question: For `Cn1c(=O)n(C2CCC(=O)NC2=O)c2ccc(NCCN3CCN(c4cccc(-c5cnc6ccc(N7CCC[C@@H]7c7cccc(F)c7)nn56)n4)CC3)cc21` (stereo partly drawn) [TR-220, 3-(5-((2-(4-(6-(6-((R)-2-(3-Fluorophenyl)pyrrolidin-1-yl)imidazo[1,2-b]pyridazin-3-yl)pyridin-2-yl)piperazin-1-yl)ethyl)amino)-3-methyl-2-oxo-2,3-dihydro-1H-benzo[d]imidazol-1-yl)piperidine-2,6-dione], which IC50 [1] is on record?
Answer: 5.5 nM

Question: Which IC50 [1] does the source give for `O=C1CCC(n2c(=O)n(CCN3CCN(c4cccc(-c5cnc6ccc(N7CCC[C@@H]7c7cccc(F)c7)cn56)n4)CC3)c3ccccc32)C(=O)N1` (stereo partly drawn) [TR-242, 3-(3-(2-(4-(6-(6-((R)-2-(3-fluorophenyl)pyrrolidin-1-yl)imidazo[1,2-a]pyridin-3-yl)pyridin-2-yl)piperazin-1-yl)ethyl)-2-oxo-2,3-dihydro-1H-benzo[d]imidazol-1-yl)piperidine-2,6-dione] here?
Answer: > 500 nM

Question: `O=C1CCC(N2C(=O)c3cccc(NCCC(=O)N4CCN(c5cccc(-c6cnc7ccc(N8CCC[C@@H]8c8cccc(F)c8)nn67)n5)CC4)c3C2=O)C(=O)N1` (stereo partly drawn) [CPD-026, 2-(2,6-Dioxopiperidin-3-yl)-4-((3-(4-(6-(6-((R)-2-(3-fluorophenyl)pyrrolidin-1-yl)imidazo[1,2-b]pyridazin-3-yl)pyridin-2-yl)piperazin-1-yl)-3-oxopropyl)amino)isoindoline-1,3-dione] was tested. Which IC50 [2] did it give?
Answer: 82.3 nM

Question: Which IC50 [3] does the source give for `O=C(CN1CCN(c2cccc(-c3cnc4ccc(N5CCC[C@@H]5c5cccc(F)c5)nn34)n2)CC1)NCCOCCOCCNc1cccc2c1C(=O)N(C1CCC(=O)NC1=O)C2=O` (stereo partly drawn) [TR-105, N-(2-(2-(2-((2-(2,6-dioxopiperidin-3-yl)-1,3-dioxoisoindolin-4-yl)amino)ethoxy)ethoxy)ethyl)-2-(4-(6-(6-((R)-2-(3-fluorophenyl)pyrrolidin-1-yl)imidazo[1,2-b]pyridazin-3-yl)pyridin-2-yl)piperazin-1-yl)acetamide] here?
Answer: 10.1 nM

Question: How did the IC50 [1] turn out when `Cn1c(=O)n(C2CCC(=O)NC2=O)c2cccc(C#CCCN3CCN(c4cccc(-c5cnc6ccc(N7CCC[C@@H]7c7cccc(F)c7)nn56)n4)CC3)c21` (stereo partly drawn) [TR-239, 3-(4-(4-(4-(6-(6-((R)-2-(3-fluorophenyl)pyrrolidin-1-yl)imidazo[1,2-b]pyridazin-3-yl)pyridin-2-yl)piperazin-1-yl)but-1-yn-1-yl)-3-methyl-2-oxo-2,3-dihydro-1H-benzo[d]imidazol-1-yl)piperidine-2,6-dione] was run?
Answer: 46 nM

Question: How did the IC50 (KM12, 72 h) turn out when `Cn1c(=O)n(C2CCC(=O)NC2=O)c2cccc(C#CCN3CCN(c4cccc(-c5cnc6ccc(N7CCC[C@@H]7c7cccc(F)c7)nn56)n4)CC3)c21` (stereo partly drawn) [TR-238, 3-(4-(3-(4-(6-(6-((R)-2-(3-fluorophenyl)pyrrolidin-1-yl)imidazo[1,2-b]pyridazin-3-yl)pyridin-2-yl)piperazin-1-yl)prop-1-yn-1-yl)-3-methyl-2-oxo-2,3-dihydro-1H-benzo[d]imidazol-1-yl)piperidine-2,6-dione] was run?
Answer: 16 nM

Question: How did the IC50 [1] turn out when `O=C1CCC(N2Cc3cc(NC4CN(c5cccc(-c6cnc7ccc(N8CCC[C@@H]8c8cccc(F)c8)nn67)n5)C4)ccc3C2=O)C(=O)N1` (stereo partly drawn) [TR-206, 3-(5-((1-(6-(6-((R)-2-(3-Fluorophenyl)pyrrolidin-1-yl)imidazo[1,2-b]pyridazin-3-yl)pyridin-2-yl)azetidin-3-yl)amino)-1-oxoisoindolin-2-yl)piperidine-2,6-dione] was run?
Answer: 15.8 nM

Question: With `O=C1CCC(N2C(=O)c3cccc(NCCOCCOCCOCCC(=O)N4CCN(c5ccc(C(=O)Nc6n[nH]c7ccc(Cc8cc(F)cc(F)c8)cc67)c(NC6CCOCC6)c5)CC4)c3C2=O)C(=O)N1` (stereo not shown) [CPD-057, N-(5-(3,5-Difluorobenzyl)-1H-indazol-3-yl)-4-(4-(3-(2-(2-(2-((2-(2,6-dioxopiperidin-3-yl)-1,3-dioxoisoindolin-4-yl)amino)ethoxy)ethoxy)ethoxy)propanoyl)piperazin-1-yl)-2-((tetrahydro-2H-pyran-4-yl)amino)benzamide] as the compound, how does the “viability of KM12 cells” value (500 nM, 12-point 2-fold serial dilution, 3 days (FIG. 4A)) read?
Answer: inhibited the viability; also recorded: dose-dependently suppressed viability

Question: What about the IC50 [2] of the same compound?
Answer: 6.4 nM
